One data set deals with NMRI-Mäuse. In kind it is in vivo. To be noted: i. p., without DAc-SP5. The text has this: Der Einfluß von DAc-SP5 und immunsuppressiv wirkenden Verbindungen auf die Antigen-spezifische IgM-Antwort bei Mäusen wurde untersucht. Die erhaltenen Ergebnisse sind in den Fig.1 und 2 dargestellt.
DAc-SP5 rekonstituiert bereits durch wenige aufeinanderfolgende Applikationen die chemisch induzierts Suppression der humoralen Immunantwort.

The next data set relates to männlichen Balb/c-Mäusen. As to conditions: in vivo.
Data set [1] concerns Lymphocyten der SLE-Patienten. Put plainly: 3H-thymidine incorporation of lymphocytes of SLE patients. In kind it is cell-based, Mensch. To be noted: after contact with N^ε-MAc-SP5; n = 5; no significant deviation from no contact (t-test). The source says: T4-Antigene nehmen zu, wenn sich T4-Zellen vermehren bzw., wenn die Antigene vermehrt auf ihrer Oberfläche exprimiert werden. Die Untersuchungen ergaben, daß die Lymphocyten der SLE-Patienten nach Kontakt mit N^ε-MAc-SP5 keine erhöhten ³H-Thymidineinbauraten aufwiesen (910 ± 180 Impulse je Minute ohne N^ε-MAc-SP-5-Kontakt/820 ± 210 Impulse je Minute nach Kontakt mit N^ε-MAc-SP5; n = 5, keine signifikante Abweichung im t-Test). Es ist daher anzunehmen, daß die Zunahme der T4-Antigene nicht durch eine Vermehrung von T4-Zellen zustandekommt, sondern Folge einer strukturellen Veränderung der T-Zelloberfläche, möglicherweise identisch mit einem "Reifeprozeß" der Zelle, ist.
For orientation: Uptake of a labelled nucleoside into DNA is a usual measure of proliferation.

The next data set deals with AB/Bln.-Mäuse. Description: Antibody formation against sheep erythrocytes (Jerne plaque test) after sublethal X-ray irradiation. The class given is in vivo. To be noted: 600 c Gy; 10 or 50 µg i.p. every second day; untreated irradiated animals 48 days. The source says:
N^ε-MAc-SP5 (Sequenz 32 bis 36 des Milzhormons Splenin) hat die gleichen bzw. ähnliche immunbiologische Wirkungen wie das Gesamtmolekül Splenin. […] Funktionstüchtige T-Helferlymphocyten stimulieren die Antikörperbildung. Zum Nachweis einer Erhöhung der Antikörper-Bildung durch N^ε-MAc-SP5 wurde ein relevantes tierexperimentelles Modell gewählt: AB/Bln.-Mäuse wurden mit Röntgenstrahlen subletal bestrahlt und danach mit bzw. ohne N^ε-MAc-SP5 therapiert. Gleichzeitig erfolgte die Immunisierung der Tiere mit Schafserythrocyten. Da subletal bestrahlte Tiere die Fähigkeit verlieren, quantitativ ausreichend Antikörper zu produzieren, ist eine vermehrte Bildung von Antikörpern gegen Schafserythrocyten bei den mit N^ε-MAc-SP5 behandelten Tieren ein Maß für die Regeneration des Immunsystems durch N^ε-MAc-SP5. Mit N^ε-MAc-SP5 behandelte Tiere konnten bereits nach 34 Tagen Antikörper in gleicher Menge wie unbestrahlte Kontrolltiere bilden. Im Vergleich dazu waren nicht mit N^ε-MAc-SP5 behandelte Tiere dazu erst 48 Tage nach der einmaligen Röntgenbestrahlung befähigt. […]

For data set [2], the system named is T4-Antigenen auf der Oberfläche menschlicher Lymphocyten. Description: Increase of T4 antigens on the surface of human lymphocytes of SLE patients in vitro (monoclonal antibodies). In kind it is cell-based, Mensch. The text has this: N^ε-MAc-SP5 (Sequenz 32 bis 36 des Milzhormons Splenin) hat die gleichen bzw. ähnliche immunbiologische Wirkungen wie das Gesamtmolekül Splenin. […] Funktionstüchtige T-Helferlymphocyten stimulieren die Antikörperbildung. Zum Nachweis einer Erhöhung der Antikörper-Bildung durch N^ε-MAc-SP5 wurde ein relevantes tierexperimentelles Modell gewählt: AB/Bln.-Mäuse wurden mit Röntgenstrahlen subletal bestrahlt und danach mit bzw. ohne N^ε-MAc-SP5 therapiert. Gleichzeitig erfolgte die Immunisierung der Tiere mit Schafserythrocyten. Da subletal bestrahlte Tiere die Fähigkeit verlieren, quantitativ ausreichend Antikörper zu produzieren, ist eine vermehrte Bildung von Antikörpern gegen Schafserythrocyten bei den mit N^ε-MAc-SP5 behandelten Tieren ein Maß für die Regeneration des Immunsystems durch N^ε-MAc-SP5. Mit N^ε-MAc-SP5 behandelte Tiere konnten bereits nach 34 Tagen Antikörper in gleicher Menge wie unbestrahlte Kontrolltiere bilden. Im Vergleich dazu waren nicht mit N^ε-MAc-SP5 behandelte Tiere dazu erst 48 Tage nach der einmaligen Röntgenbestrahlung befähigt.
Funktionstüchtige (reife) T-Helferlymphocyten besitzen auf ihrer Oberfläche T4-Antigene, T-Suppressorlymphocyten T8-Antigene. Bei Patienten mit Systemischem Lupus Erythematodes (SLE) wurde mittels monoklonaler Antikörper ein verminderter Gehalt von T4-Antigenen auf der Lymphocytenoberfläche bestimmt. […]

Entries after “also recorded” stand apart in the source; their conditions may differ. Where two headings read alike, the source gives them in different places.

Consider `O=P1(N(CCCl)CCCl)NCCCO1` (centres unmarked) [Cyclophosphamid], for which, in the data set on NMRI-Mäuse (single dose 7,2 mg/Tier), the “Antigen-spezifischen IgM-Antwort” value is “nahezu vollständige Suppression”.
Turning to `C[C@@H]1C[C@H]2[C@@H]3CCC4=CC(=O)C=C[C@]4(C)[C@@]3(F)[C@@H](O)C[C@]2(C)[C@@]1(O)C(=O)CO` [Dexamethason], the “Antigen-spezifischen IgM-Antwort” value with NMRI-Mäuse (0,2 mg/Tier or 0,08 mg/Tier) is listed as “Reduktion”.
For the molecule `CCO` [Ethanol], in the data set on männlichen Balb/c-Mäusen, the “% phagocytierende Peritonealzellen” value is recorded as 29,0±1,7%, the “Milzmasse (mg)” value is given as 60,0±3,2 mg, the Phagocytoseindex was 3,0±0,08 and the “Plaque-bildende Zellen der Milz pro 10⁶ Zellen (Jerne-Plaquetest)” value was 61,3±3,8 pro 10⁶ Zellen. In the data set on männlichen Balb/c-Mäusen, the “Thymusmasse (mg)” value was 15,0±2,6 mg.
“Arginyl(N^ε-acetyl-lysyl)glutamylvalyl)tyrpsin [N^ε-MAc-SP5]” returned a ³H-Thymidineinbauraten in data set [1] of 820 ± 210 Impulse je Minute. The “time after X-ray irradiation until Antikörper in gleicher Menge wie unbestrahlte Kontrolltiere” value in the data set with AB/Bln.-Mäuse amounted to 34 Tage. Further, the “TB-Antigene (Oberflächenantigene auf T-Suppressorlymphocyten bzw. cytotoxischen T-Lymphocyten)” value in data set [2] (lymphocytes of SLE patients after contact with N^ε-MAc-SP5) is “veränderten sich dagegen quantitativ nicht”. The “Anzahl von T4-Antigenen” value in data set [2] (lymphocytes of SLE patients before therapy, 2 h incubation with N^ε-MAc-SP5) is on record as “quantitative Zunahme von T4-Antigenen; also recorded: permanent erhöhte Anzahl von T4-Antigenen”.

The record behind these values is patent EP0307553B1, “Modified splenopentines, their process of preparation and their use” (priority 1987, dated 1989).
